Source: US20200377568A1, “Novel IL-4-/IL-13-derived peptide compounds for the treatment or prevention of neurodegenerative or neuroinflammatory diseases” (Universitätsmedizin der Johannes Gutenberg-Universität Mainz, priority 2018, published 2020)
“Also recorded” adds a separate entry of the source.

Legend:
[1] = system: experimental autoimmune encephalomyelitis (EAE) mice; experiment: EAE clinical score, treatment during the chronic phase; type: in vivo, mouse; conditions: chronic phase of EAE, vs PBS
Method: To test whether Link4 has similar effects to IL-4 in vivo, two pilot experiments were performed. In the first experiment (FIG. 3A), B16 mice were subjected to EAE and treated with IL-4, Link4, Ph8 and PBS (n=6-7 animals per group) via lumbar intrathecal injection directly into the cerebrospinal fluid (CSF) every other day for 14 days, in the chronic phase of the disease starting from day 5 after the first disease peak (grey bar). […] For better clinical translation, the treatment was then switched to nasal treatment with IL-4 and Link4 (FIG. 3B; 2 pooled experiments, n=15-16 per group). Nasally applied treatments can enter the brain through the cribriform plate, where olfactory nerve fibers cross through the bone, resulting in a connection between the roof of the nasal cavity and the brain (C. F. Xiao, F. J. Davis, B. C. Chauhan, K. L. Viola, P. N. Lacor, P. T. Velasco, W. L. Klein, and N. B. Chauhan, Brain transit and ameliorative effects of intranasally delivered anti-amyloid-beta oligomer antibody in 5XFAD mice. J Alzheimers Dis 35, 777-788 (2013)). Again, both IL-4 and Link4 treatments were beneficial.
For active EAE, female 9-10-weeks-old C57BI6 mice were immunized as previously described (M. Paterka, J. O. Voss, J. Werr, E. Reuter, S. Franck, T. Leuenberger, J. Herz, H. Radbruch, T. Bopp, V. Siffrin, and F. Zipp, Dendritic cells tip the balance towards induction of regulatory T cells upon priming in experimental autoimmune encephalomyelitis. J Autoimmun 67, 108-114 (2017)) by subcutaneous injection of 200 μg myelin oligodendrocyte […] 35-55 (MOG35-55) mixed with complete Freund adjuvant (CFA). Following the MOG35-55 immunization 400 ng pertussis toxin (PTX) was administered intraperitoneally at the day of immunizaton and after 24 h. Clinical signs were scored using the following parameters:
Treatment with rIL-4 (1 μg, Peprotech), Ph8 (1 μg, custom synthesized, Schafer N), Link4 (1 μg, custom synthesized, Schafer N) or vehicle (PBS) was performed during the chronic phase of the disease models by lumbar intrathecal injection (R. Lu and A. Schmidtko, Direct intrathecal drug delivery in mice for detecting in vivo effects of cGMP on pain processing. Methods Mol Biol 1020, 215-221 (2013)) or nasal application of IL-4 and Link4 was performed according to published procedures (C. F. Xiao, F. J. Davis, B. C. Chauhan, K. L. Viola, P. N. Lacor, P. T. Velasco, W. L. Klein, and N. B. Chauhan, Brain transit and ameliorative effects of intranasally delivered anti-amyloid-beta oligomer antibody in SXFAD mice. J Alzheimers Dis 35, 777-788 (2013)). Mice were pre-trained to avoid stress and held at a 45 degree angle to apply IL-4 solution (1 μg, Peprotech) to the nostrils using a pipette tip.

[2] = system: dissociated cortical neurons; experiment: Phosphorylation of signalling molecules (Western blot); type: cell-based, mouse; conditions: 50 ng/ml, 10 min treatment, FIG. 5B
Method: A: Cortical outgrowth in response to 50 ng/ml IL-4, Link4, or Link13, compared to PBS control. The increase in growth at 48 h was calculated over the basal (untreated) growth at 24 h. B: Effects on phosphorylation of signalling molecules after 10 min treatment of dissociated cortical neurons with IL-4, Link4 or PBS.
Neonatal (P1-3) cortex explants were dissected from 250 μm thick vibratome (HM650V, Thermo Fisher) sections from Bregma 0 to −1.5 (motor cortex). Cortical layer V was micro-dissected, plated on poly-D-lysine (0.5 mg/ml) and laminin (1 mg/ml)-coated glass coverslips and grown for 24 h in neurobasal medium with 2% horse serum, 2% B27, 1% glutamax and 0.5% penicillin/streptomycin. Explants were treated for 48 h with rIL-4 (50 ng/ml), Link4 (50 ng/ml), Link13 (50 ng/ml) or PBS. Axon length was assessed using Adobe Photoshop by measuring the distance of the 40 longest axons, corrected for the initial growth at 24 h. […]
For Western blotting, the following primary antibodies were used: anti-IRS1 (EMD Millipore), anti-phospho-IRS1 (Cell Signaling Technology), anti-MAPK and anti-phospho-MAPK (Cell Signaling Technology), anti-PKCγ (Santa-Cruz), anti-phospho-PKCγ (Biozol). DyLight […]-coupled secondary antibodies were used for quantitative analysis of the proteins using the Li-Cor Odyssey FC imaging system (Li-Cor Bioscience). […]

“RARSEIIGIGSKSIMQMDY (listed as Mus musculus) [Link4]” was tested, and the clinical score ([1]; lumbar intrathecal injection, 1 μg every other day for 14 days) was “significant improvement in the clinical score; also recorded: significant amelioration of the clinical score”, the clinical score ([1]; lumbar intrathecal injection, 1 μg every other day for 14 days, listed as mouse Link4) was “reducing disease symptoms” and the clinical score ([1]; nasal application) was “significant improvement in the clinical score; also recorded: beneficial”. The “phosphorylation of signalling molecules (neuronal signalling)” value [2] was “same neuronal signalling effects as IL-4”.
